Experimental findings from article PMC5780498, “Discovery of novel bacterial topoisomerase I inhibitors by use of in silico docking and in vitro assays” (Scientific Reports, 2018) are described below.

Molecules are shown by their SMILES. ≈ marks a conversion by molar mass, not a printed value. Entries after “also recorded” stand apart in the source; their conditions may differ. Like-named read-outs stand apart in the source and are kept apart here. Where only a bound is given, the exact number is not on record here.

In experiment [1] the target is T1, human topoisomerase I (hTOPI) (Homo sapiens, UniProt P11387).
T1 construct: purchased TopoGen
T1 sequence (P11387 1-765): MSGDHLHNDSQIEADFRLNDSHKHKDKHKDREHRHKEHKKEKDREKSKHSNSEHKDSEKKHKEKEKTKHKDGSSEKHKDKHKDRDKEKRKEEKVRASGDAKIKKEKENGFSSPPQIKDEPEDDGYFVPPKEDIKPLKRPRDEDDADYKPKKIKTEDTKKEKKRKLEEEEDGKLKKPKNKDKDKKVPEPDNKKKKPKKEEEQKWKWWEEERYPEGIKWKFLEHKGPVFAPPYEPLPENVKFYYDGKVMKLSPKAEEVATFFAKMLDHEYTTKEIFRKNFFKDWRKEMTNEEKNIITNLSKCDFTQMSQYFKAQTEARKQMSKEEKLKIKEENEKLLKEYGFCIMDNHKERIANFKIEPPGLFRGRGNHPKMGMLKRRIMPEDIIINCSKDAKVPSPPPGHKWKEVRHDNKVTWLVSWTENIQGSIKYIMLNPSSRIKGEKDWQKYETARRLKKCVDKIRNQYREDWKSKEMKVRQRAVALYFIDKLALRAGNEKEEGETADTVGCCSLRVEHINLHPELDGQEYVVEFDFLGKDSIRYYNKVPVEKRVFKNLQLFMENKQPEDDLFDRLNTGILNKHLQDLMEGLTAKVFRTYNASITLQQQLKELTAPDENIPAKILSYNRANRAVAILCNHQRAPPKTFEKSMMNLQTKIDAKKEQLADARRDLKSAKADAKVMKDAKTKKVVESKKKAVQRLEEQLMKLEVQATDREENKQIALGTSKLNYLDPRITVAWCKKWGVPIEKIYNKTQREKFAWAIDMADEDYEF
Briefly: Human topoisomerase I relaxation inhibition assay. The format is biochemical. The conditions noted are these: for IC50: 0.5 U enzyme, supercoiled plasmid, 37 °C 30 min; for Selectivity Score: hTOPI IC50/MtbTopI IC50. As for the experimental part: Human topoisomerase I assays were carried out in a buffer containing 10 mM Tris-HCl, pH 8.0, 150 mM NaCl, 0.1% BSA, 0.1 mM spermidine, and 5% glycerol. The enzyme (from TopoGen) was diluted in the above buffer and aliquoted into 10 µL samples such that 0.5U was present in each. 0.5 µL of compound at various concentrations was added before the addition of 150 ng of purified pBAD/Thio purified plasmid DNA for a final volume of 20 µL. The samples were incubated for 30 minutes at 37 °C before stopping by the addition of 4 µL of buffer containing 5% SDS, 0.25% bromophenol blue, and 25% glycerol. The samples were analyzed by gel electrophoresis as previously described[23],[38],[39]. The experiments were replicated twice.

In experiment [2] the target is T2, M. tuberculosis topoisomerase I (MtbTopI) (Mycobacterium tuberculosis, UniProt P9WG49).
T2 construct: made in house
Briefly: MtbTopI relaxation inhibition assay. The experiment is classed as biochemical. The settings on record: 12.5 nM enzyme, supercoiled pBAD/Thio plasmid, 37 °C 30 min, agarose gel.

The target of experiment [3] is T3, human topoisomerase I (Homo sapiens, UniProt P11387).
T3 construct: purchased TopoGen
T3 sequence (P11387 1-765): T1 sequence (P11387 1-765)
Description: Gel electrophoresis with ethidium bromide of human topoisomerase I reaction products (nicked DNA). The format is biochemical. The conditions noted are these: gel electrophoresis in the presence of ethidium bromide.

The test system of experiment [4] is M. smegmatis transformed with cloning vector (MnoI strain). Description: microbe, parasite or virus in culture. The experiment is classed as cell-based, Mycobacterium smegmatis. The settings on record: Mycolicibacterium smegmatis.
Experiment [5] deals with T4, E. coli DNA gyrase (Escherichia coli, UniProt P0AES4+P0AES6).
T4 construct: purchased New England BioLabs
Description: DNA gyrase supercoiling inhibition assay. The format is biochemical. The settings on record: for IC50: 2 U enzyme, relaxed plasmid, 37 °C 30 min. As for the experimental part: E. coli DNA gyrase was obtained from New England BioLabs. Two units of the enzyme were added to a reaction buffer provided by the manufacturer (35 mM Tris-HCl, pH 8.0, 4 mM MgCl2, 24 mM KCl, 2 mM DTT, 1.75 mM ATP, 5 mM spermidine, 0.1 mg/mL BSA, and 6.5% glycerol). 0.5 µL of the compounds dissolved in DMSO or the solvent alone were added to the enzyme mixture. 300 ng of relaxed covalently closed plasmid DNA was then added for a final volume of 20 µL. The reactions were incubated for 30 minutes at 37 °C before termination by the addition of 4 µL of the SDS stop buffer. The samples were then loaded into a 1% agarose gel and run at 25 V overnight. The experiments were replicated twice.

In experiment [6] the target is E. coli topoisomerase I (Escherichia coli, UniProt P06612). Briefly: E. coli topoisomerase I relaxation inhibition assay. The experiment is classed as biochemical. The settings on record: for Inhibition of E. coli topoisomerase I relaxation activity (in words): Supplementary Fig. S2.
Where [7] appears, read: 48 h, read-out: MnoI Growth Inhibition (MIC).
[8] abbreviates: read-out: MnoI Growth Inhibition with TZ (MIC).

As a reminder, the IC50 is the concentration at which inhibition is half-maximal. A high value points to lower potency.

T4 sequence (P0AES4 whole entry, one chain of several): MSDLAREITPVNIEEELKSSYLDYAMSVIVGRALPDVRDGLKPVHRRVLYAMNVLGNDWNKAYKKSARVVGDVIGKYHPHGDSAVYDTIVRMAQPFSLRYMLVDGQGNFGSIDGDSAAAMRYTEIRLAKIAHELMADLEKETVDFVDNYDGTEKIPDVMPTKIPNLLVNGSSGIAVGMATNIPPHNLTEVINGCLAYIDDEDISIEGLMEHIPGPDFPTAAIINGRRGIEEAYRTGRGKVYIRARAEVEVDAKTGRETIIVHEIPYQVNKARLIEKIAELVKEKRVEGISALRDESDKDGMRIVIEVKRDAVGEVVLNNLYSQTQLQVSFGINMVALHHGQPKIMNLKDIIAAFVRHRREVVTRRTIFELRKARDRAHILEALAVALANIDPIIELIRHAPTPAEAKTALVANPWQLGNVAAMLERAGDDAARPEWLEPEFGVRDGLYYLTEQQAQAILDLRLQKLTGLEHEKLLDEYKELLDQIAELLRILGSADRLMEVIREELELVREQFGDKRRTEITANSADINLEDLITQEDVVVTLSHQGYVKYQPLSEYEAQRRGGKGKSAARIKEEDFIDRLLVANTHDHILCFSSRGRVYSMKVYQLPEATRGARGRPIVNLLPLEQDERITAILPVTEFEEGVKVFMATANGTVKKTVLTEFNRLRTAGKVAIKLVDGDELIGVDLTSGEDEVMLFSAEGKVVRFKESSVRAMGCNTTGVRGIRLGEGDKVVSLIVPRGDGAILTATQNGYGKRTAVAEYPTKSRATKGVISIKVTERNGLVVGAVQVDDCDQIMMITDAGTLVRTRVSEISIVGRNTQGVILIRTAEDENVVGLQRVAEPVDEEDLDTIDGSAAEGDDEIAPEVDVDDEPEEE
T2 sequence (P9WG49 whole entry): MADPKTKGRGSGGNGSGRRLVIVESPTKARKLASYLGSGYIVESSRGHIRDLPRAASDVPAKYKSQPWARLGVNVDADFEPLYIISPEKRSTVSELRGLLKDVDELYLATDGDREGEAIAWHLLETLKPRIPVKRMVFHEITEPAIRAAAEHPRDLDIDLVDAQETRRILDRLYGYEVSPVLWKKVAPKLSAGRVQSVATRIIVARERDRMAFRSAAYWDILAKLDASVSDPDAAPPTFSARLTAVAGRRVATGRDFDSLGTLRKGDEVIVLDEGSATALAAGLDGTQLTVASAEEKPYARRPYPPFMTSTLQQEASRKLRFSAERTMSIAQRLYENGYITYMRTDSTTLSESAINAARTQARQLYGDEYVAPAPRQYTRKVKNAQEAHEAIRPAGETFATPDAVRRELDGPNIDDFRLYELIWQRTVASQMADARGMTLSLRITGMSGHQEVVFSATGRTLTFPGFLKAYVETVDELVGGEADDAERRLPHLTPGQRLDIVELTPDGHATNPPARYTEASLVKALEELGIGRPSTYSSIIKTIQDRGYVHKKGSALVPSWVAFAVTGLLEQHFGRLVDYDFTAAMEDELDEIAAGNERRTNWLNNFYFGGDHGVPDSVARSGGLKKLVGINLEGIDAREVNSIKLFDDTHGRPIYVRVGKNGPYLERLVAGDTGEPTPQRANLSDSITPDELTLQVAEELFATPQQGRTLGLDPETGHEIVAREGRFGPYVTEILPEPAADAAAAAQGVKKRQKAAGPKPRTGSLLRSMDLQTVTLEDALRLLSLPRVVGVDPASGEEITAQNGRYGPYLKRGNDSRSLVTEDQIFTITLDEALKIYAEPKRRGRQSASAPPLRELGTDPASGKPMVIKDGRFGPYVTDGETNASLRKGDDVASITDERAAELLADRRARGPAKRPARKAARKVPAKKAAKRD
Sequence of E. coli topoisomerase I (P06612 whole entry): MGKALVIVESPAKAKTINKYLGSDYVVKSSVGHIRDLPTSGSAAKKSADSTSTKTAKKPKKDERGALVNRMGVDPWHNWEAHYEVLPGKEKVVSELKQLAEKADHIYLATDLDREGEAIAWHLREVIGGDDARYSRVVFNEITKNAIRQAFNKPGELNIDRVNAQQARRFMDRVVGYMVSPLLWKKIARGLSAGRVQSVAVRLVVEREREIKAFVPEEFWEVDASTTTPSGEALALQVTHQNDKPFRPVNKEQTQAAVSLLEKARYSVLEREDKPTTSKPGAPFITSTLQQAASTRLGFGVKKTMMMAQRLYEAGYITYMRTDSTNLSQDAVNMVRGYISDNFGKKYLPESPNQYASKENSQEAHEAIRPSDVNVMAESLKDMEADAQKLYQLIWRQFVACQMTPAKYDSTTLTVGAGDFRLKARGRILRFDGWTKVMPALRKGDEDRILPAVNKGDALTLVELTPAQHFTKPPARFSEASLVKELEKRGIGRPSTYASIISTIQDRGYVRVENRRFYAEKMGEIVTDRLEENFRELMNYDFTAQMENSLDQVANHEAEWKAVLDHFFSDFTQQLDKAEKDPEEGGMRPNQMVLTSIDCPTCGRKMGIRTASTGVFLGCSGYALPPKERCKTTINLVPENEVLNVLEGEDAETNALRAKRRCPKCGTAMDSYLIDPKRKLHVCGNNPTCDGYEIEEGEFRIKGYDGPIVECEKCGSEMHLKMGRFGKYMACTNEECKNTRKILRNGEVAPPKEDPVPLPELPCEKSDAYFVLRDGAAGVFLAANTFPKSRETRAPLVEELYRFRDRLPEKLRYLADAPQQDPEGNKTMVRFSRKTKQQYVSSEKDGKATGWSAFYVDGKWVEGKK

Regarding `Cc1c(C(=O)N2CCC3(CC2)CC(O)(c2ccc(F)cc2)CO3)oc2ccccc12` (centres unmarked) [Compound 4], in experiment [1], the IC50 is > 250 µM and the “Selectivity Score” value was >2. This compound also gave an IC50 in experiment [2] of 125 µM.
In experiment [2], `O=C(CN1C(=O)C2C3CCC(C3)C2C1=O)N1CCC2(CC1)Nc1ccccc1-n1cccc12` (centres unmarked) [Compound 6] gave an IC50 of 500 µM.
Turning to `CC[C@@]1(O)C(=O)OCc2c1cc1n(c2=O)Cc2cc3ccccc3nc2-1` [camptothecin], the “Formation of nicked DNA by human topoisomerase I” value in experiment [3] is listed as “increased nicking of DNA by human topoisomerase I significantly”.
As to `Cc1ccc2[nH]c(C3CCN(C(=O)c4oc5ccc(C)cc5c4C)CC3)nc2c1` [Compound 9], the IC50 in experiment [1] was > 500 µM; in experiment [2], 62.5 µM; in experiment [5], > 500 µM. In addition, the figures for the MIC in experiment [4] (setting [7]) and in experiment [4] (setting [8]) were 125 µM (≈ 48.4 µg/mL) and 23.4 µM (≈ 9.07 µg/mL), respectively. Moreover, the “Inhibition of E. coli topoisomerase I relaxation activity (in words)” value in experiment [6] is recorded as “inhibited”.
Consider `COc1ccc2c(c1)NC1(CCN(C(=O)Cc3c[nH]c4ccccc34)CC1)NS2(=O)=O` [Compound 3], for which the IC50 in experiment [1] was > 250 µM; in experiment [2] it was 62.5 µM. The “Selectivity Score” value in experiment [1] is >4. For the same compound, the MIC in experiment [4] (setting [7]) worked out at 250 µM (≈ 110 µg/mL); in experiment [4] (setting [8]), 31.3 µM (≈ 13.8 µg/mL).
Take `Cc1ccc2c(C)c(C(=O)N3CCC4(CC(=O)c5ccccc5O4)C3)oc2c1` (centres unmarked) [Compound 12]: the IC50 was > 500 µM in experiment [1], 62.5 µM in experiment [2] and > 500 µM in experiment [5]. For the same compound, the MIC was > 500 µM in experiment [4] (setting [7]) and 500 µM (≈ 188 µg/mL) in experiment [4] (setting [8]).
As to `Cc1cc2oc(C(=O)N3CCC(c4nc5ccccc5[nH]4)CC3)c(C)c2cc1C` [Compound 8], the IC50 in experiment [1] is > 500 µM; in experiment [2], 62.5 µM; in experiment [5], > 500 µM. In addition, the MIC was > 500 µM in experiment [4] (setting [7]) and 23.4 µM (≈ 9.07 µg/mL) in experiment [4] (setting [8]). Further, the “Inhibition of E. coli topoisomerase I relaxation activity (in words)” value in experiment [6] is “inhibited”.
`Cc1c(C(=O)N2CCCCC2CCc2ccc(O)cc2)oc2c(F)cccc12` (centres unmarked) [Compound 11]: the results for the concentration for half-maximal inhibition (IC50) in experiment [1], in experiment [2] and in experiment [5] were 250 µM, 62.5 µM and > 500 µM, respectively. Further, the MIC is 500 µM (≈ 191 µg/mL) in experiment [4] (setting [7]) and 46.9 µM (≈ 17.9 µg/mL) in experiment [4] (setting [8]).
For `Cc1ccc2oc(C(=O)N3CCC(O)(c4cccc(C(F)(F)F)c4)CC3)c(C)c2c1` [Compound 10], the IC50 in experiment [1] was > 500 µM; in experiment [2], 62.5 µM; in experiment [5], > 500 µM. Besides, the MIC stood at 125 µM (≈ 52.2 µg/mL) in experiment [4] (setting [7]) and 23.4 µM (≈ 9.77 µg/mL) in experiment [4] (setting [8]).
On to `O=C(c1ccc2c(c1)OCO2)N1CCC(Cn2nc(-c3ccc(F)cc3)ccc2=O)CC1` [Compound 5], for which, in experiment [2], half-maximal inhibition (IC50) required 250 µM.
As to `Cc1c(C(=O)N2CCC(c3nnc(-c4nccc5ccccc45)o3)CC2)oc2ccccc12` [Compound 2], the IC50 in experiment [1] is > 250 µM; in experiment [2] it was 62.5 µM. In experiment [1], the “Selectivity Score” value is given as >4. Besides, the values for the MIC in experiment [4] (setting [7]) and in experiment [4] (setting [8]) were 188 µM (≈ 82.2 µg/mL) and 31.3 µM (≈ 13.7 µg/mL), respectively.
Regarding `Cc1ccc(CN2C[C@]34C=C[C@H](O3)C(C(=O)N3CCn5cccc5C3)C4C2=O)cc1C` (some centres unmarked) [Compound 7], the IC50 is > 500 µM in experiment [1], 2 µM in experiment [2] and 15.6 to 31.3 µM in experiment [6] (assay conditions as for MtbTopI). Also, the values for the MIC in experiment [4] (setting [7]) and in experiment [4] (setting [8]) were > 500 µM and 500 µM (≈ 209 µg/mL), respectively. Besides, the “Inhibition of E. coli DNA gyrase supercoiling activity (in words)” value in experiment [5] (up to 500 µM) is on record as “no inhibition; also recorded: does not inhibit”. In addition, the “Inhibition of E. coli topoisomerase I relaxation activity (in words)” value in experiment [6] is reported as “inhibited”.
